Source: patent US6562595B2, “Dominant selectable marker for gene transformation and disruption in yeasts” (McGill University, priority 2000, dated 2003)

Columns and labels:
[1] = test system: C. albicans strain SC5314; assay: Halo assay (zones of inhibition on confluent plates); format: cell-based, Candida albicans
Procedure: (§1) Confluent plates of either S. cerevisiae diploid strain SEY6210 (left panel) or C. albicans strain SC5314 (right panel) were spotted with 5 μl of destomycin (DSM), blasticidin (BSN), nourseothricin (NST), geneticin (G418), zeocin (ZEO), and puromycin (PUR) using concentrations of 10 mg/ml, 1 mg/ml, 0.5 mg/ml, 0.25 mg/ml, 0.125 mg/ml, and 0.06 mg/ml (top to bottom). Zones of inhibition were examined after overnight growth; clear halos indicate antifungal activity;
(§2) To explore the possibility of developing a dominant selectable marker for C. albicans, geneticin, the aminoglycoside used in dominant selection studies in S. cerevisiae was initially examined for antifungal activity in C. albicans (FIG. 1). […] When a number of alternative commercially available antibiotics including zeocin, destomycin, nourseothricin, blasticidin, and puromycin were tested for antifungal activity, the present inventors discovered that C. albicans was sensitive to nourseothricin at a concentration of about 200 μg/ml. […] C. albicans was also found to be sensitive to blasticidin. […] (Webster et al., 1983, Gene 26:243-252).

[2] = test system: S. cerevisiae diploid strain SEY6210; assay: as above; format: cell-based, Saccharomyces cerevisiae; conditions: at concentration dramatically below that at which geneticin acts
Procedure: as §1, §2

[3] = test system: C. albicans CAI4 maintaining pRC18 vector and parent strain SC5314; assay: Growth on nourseothricin-supplemented plates; format: cell-based, Candida albicans; conditions: 400 μg/ml; irrespective of carbon source (1% Casamino acid or YEP 2% glucose)
Procedure: ASTHMA, PSMP, and vector alone (lacking either SAT expression module) plasmids were transformed into CAI4 and directly selected on YPD-drug supplemented plates (400 μg/ml) prior to being restreaked onto a YPD plate containing 400 μg/ml nourseothricin. A) Six independent ASTHMA transformants, as well as the negative controls CAI4, containing pRC18, and the parent strain, SC5314 are shown after two days growth at 30° C. on YPD plates containing 400 μg/ml NST. B) Four independent PSMP transformants, as well as the negative controls, CAI4 maintaining pRC18, and SC5314, grown on YPD (left plate), and either derepressing conditions (1% Casamino acid+300 μg/ml NST, center plate), or repressing conditions (YPD+300 μg/ml NST, right plate) for PCK1 promoter-dependent expression of SAT. Plates were incubated two days at 30° C.; and
The composition of a YPD medium for culturing yeast contains 1% yeast extract, 2% bactopeptone and 2% glucose. Agar was added in an amount of 2% to the medium in the case of a plate form. Transformant were selected on Ura+ protophy and subsequently streaked onto nourseothricin-supplemented plates containing either 1% Casamino acid (derepressing conditions) or YEP containing 2% glucose (repressing conditions) as alternative carbon sources. […]

[4] = test system: S. cerevisiae strain maintaining the geneticin resistance gene KanR; assay: Nourseothricin sensitivity of geneticin-resistant (KanR) strain; format: cell-based, Saccharomyces cerevisiae; conditions: S. cerevisiae strain with KanR
Excerpt: The present inventors also compared the sensitivity of NST to geneticin in S. cerevisiae.

Row | Compound | antifungal (fungicidal) activity by halo assay ([1]; C. albicans SC5314, 5 μl spots, 10 to 0.06 mg/ml, overnight growth) | antifungal activity by halo assay [2] | growth of strains lacking SAT in the presence of the drug [3] | cross-resistance conferred by KanR [4] | concentration at which C. albicans is sensitive ([1]; C. albicans) | effect of medium on antifungal effectiveness ([1]; rich, high-salt YPD plates versus minimal YNB plates)
1 | CN(CC[C@H](N)CC(=O)N[C@H]1C=C[C@H](n2ccc(N)nc2=O)O[C@@H]1C(=O)O)C(=N)N [blasticidin] | sensitive | – | – | – | – | –
2 | nourseothricin | – | potent antifungal activity | failed to grow | failed to confer resistance | about 200 μg/ml | dramatically more effective on rich media
